The source of these data is patent US20010008947A1, “2-AMINO-4-PHENYL-4-OXO-BUTYRIC ACID DERIVATIVES” (priority 1993, published 2001).

Where a name gives a salt, the structure may show the parent alone.

Data set [1] concerns the target T1, kynureninase (Rattus norvegicus, UniProt P70712).
T1 construct: from tissue; host or cells: rat liver homogenate
T1 sequence (P70712 1-464): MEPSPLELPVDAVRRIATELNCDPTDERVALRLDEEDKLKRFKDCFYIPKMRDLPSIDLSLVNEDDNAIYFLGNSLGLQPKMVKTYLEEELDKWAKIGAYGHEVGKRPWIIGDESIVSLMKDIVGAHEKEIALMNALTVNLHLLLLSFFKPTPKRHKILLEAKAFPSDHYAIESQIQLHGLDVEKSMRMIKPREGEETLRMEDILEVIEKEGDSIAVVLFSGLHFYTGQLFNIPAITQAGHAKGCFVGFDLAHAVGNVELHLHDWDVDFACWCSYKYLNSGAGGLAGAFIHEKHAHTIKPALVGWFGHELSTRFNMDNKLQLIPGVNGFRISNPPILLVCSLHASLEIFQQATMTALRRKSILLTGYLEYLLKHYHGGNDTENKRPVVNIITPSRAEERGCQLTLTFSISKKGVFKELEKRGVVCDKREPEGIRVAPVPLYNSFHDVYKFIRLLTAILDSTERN
In words: Kynureninase inhibition in rat liver homogenates. It is filed as biochemical. As to conditions: rat liver homogenate; for inhibition at 1000 µM: 1 mM. How it is done: The efficacy of the compounds of the invention in the inhibition of kynureninase has been evaluated in rat liver homogenates as described by, Takikawa O. et al. in J. Biol. Chem. 261 (8), 3648-3652 - 1986), with slight modifications.
HPLC method was essentially Takikawa's method, using the same Fluorimetric detection (ex. 313 nm, em. 420 nm) but changing the column (Nova-Pak C18 3.9×300 mm) and the mobile phase (phosphate buffer 80 mM, 13% CH.CN pH 2.5).

Data set [2] addresses T2, rat brain kynureninase (Rattus norvegicus, UniProt P70712).
T2 construct: Partial purification of rat brain kynureninase was performed according to Lee et al; from tissue; host or cells: rat brain, partially purified enzyme
T2 sequence (P70712 1-464): T1 sequence (P70712 1-464)
In words: Kynureninase assay in the rat brain. In kind it is biochemical. The following applies: rat brain homogenate; for inhibition at 100 µM: read-out: % INHIBITION AT 100 μM Kyn-Ase. On the procedure:
Kynureninase assay in the rat brain
Partial purification of rat brain kynureninase was performed according to Lee et al., “Isolation and characterization of kynureninase from rat liver”, advances in Tryptophan Research, 431-434, 1992.
To perform rat brain kynureninase assay, a reaction mixture (final volume 0.2 ml) containing 100 mM tris-HCl, pH 8.0, […] pyridoxal phosphate, […] kynurenine, 20 μl of partially purified enzyme and 100 μM of inhibitor solution was prepared.
The reaction was carried out at 37° C. for 3 hours and then stopped by adding 50 μl of perchloric acid 2N. After centrifugation at 11000 rpm for 15 min., anthranilic acid in the supernatant was determined fluorimetrically in a HPLC system (as described for the liver method).

The target in data set [3] is T3, kynurenine-3-hydroxylase (Rattus norvegicus, UniProt O88867).
T3 construct: Brain was homogenized in ice-cold 0.32 M sucrose and centrifugated at 12000×g; from tissue; host or cells: rat brain homogenate, washed pellet suspended
T3 sequence (O88867 whole entry): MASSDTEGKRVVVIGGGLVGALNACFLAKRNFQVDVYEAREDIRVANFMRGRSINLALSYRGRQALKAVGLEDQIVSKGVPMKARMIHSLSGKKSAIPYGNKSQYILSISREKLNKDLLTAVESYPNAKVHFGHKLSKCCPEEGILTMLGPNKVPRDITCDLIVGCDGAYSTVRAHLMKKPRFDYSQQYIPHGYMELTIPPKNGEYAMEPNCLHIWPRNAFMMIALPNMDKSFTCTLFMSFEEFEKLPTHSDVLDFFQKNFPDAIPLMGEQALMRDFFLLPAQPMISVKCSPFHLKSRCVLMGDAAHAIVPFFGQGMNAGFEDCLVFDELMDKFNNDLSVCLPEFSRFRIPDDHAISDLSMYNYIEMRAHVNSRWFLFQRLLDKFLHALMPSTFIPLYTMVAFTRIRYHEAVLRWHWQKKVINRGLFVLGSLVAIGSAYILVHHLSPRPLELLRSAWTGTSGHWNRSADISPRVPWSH
In words: Kynurenine-3-hydroxylase assay in the rat brain. In kind it is biochemical. As to conditions: rat brain homogenate; for inhibition at 100 µM: read-out: % INHIBITION AT 100 μM Kyn-3-OH-Ase; for IC50: read-out: IC50 Kyn-3-OH-Ase. How it is done:
Kynurenine-3-hydroxylase assay in the rat brain
Kynurenine-3-hydroxylase activity was quantified by the conversion of L-kynurenine to 3-hydroxykynurenine. Brain was homogenized in ice-cold 0.32 M sucrose and centrifugated at 12000×g, for 30 min at 4 C. The pellet was washed three times with 0.32 M sucrose by centrifugation and suspended in 0.14 M KCl in 20 mM K-phosphate buffer pH 7 (1 g tissue in 2 ml buffer).
The reaction mixture contained: 75 μl of suspended homogenate; 100 μl of substrate solution containing 50 mM K-phosphate buffer pH 7.5, 2 mM MgCl2, 0.4 mM NADPH and 50 μM L-kynurenine (final concentration); 25 μl of different concentrations of inhibitor solutions.
The reaction was stopped by addition of 200 μl of 1 M HClO4 after 60 min. incubation.
3-hydroxykynurenine formed was quantified by HPLC with coulometric detection (working voltage was +0.2 V). The column was a 10 cm C18 reversed phase (3 μm). The mobile phase consisted of 950 ml distilled water. 20 ml acetonitrile, 9 ml triethylamine, 5.9 ml phosphoric acid, 100 mg sodium EDTA and 1.5 g heptanesulfonic acid. The flow-rate was 1 ml/min.

Data set [4] deals with T3, kynurenine-3-hydroxylase. In words: Kynurenine-3-hydroxylase assay in the rat liver. It is filed as biochemical. As to conditions: rat liver homogenate. How it is done: Kynurenine-3-hydroxylase assay in the rat liver
Rat liver is homogenized in cold 0.32 M sucrose.
The homogenates are centrifuged at 12000×rpm for 30 minutes at 4° C. The precipitate, after having been washed three times with 0.32 M sucrose by means of centrifugation (12000×rpm for 30 min), is resuspended in 20 mM K-buffer+0.14 M KCl at pH 7 (1 g of liver in 6.5 ml ).
The reaction at 37° C. is terminated by the addition of 200 μl of […] after 10 minutes of incubation.
The concentrations of 3-hydroxy-kynurenine, produced in the absence or presence of the tested molecules are determined by HPLC with coulometric detection (pot. +0.20 V), using for the separation a reversed phase column C18, 10 cm long and a 3 μm particulate. The composition of the mobile phase was: 950 ml of water for HPLC, 20 ml of acetonitrile, 9 ml of triethylamine, 5.9 ml of phosphoric acid, 100 mg of Na EDTA and 1.5 g of heptanesulfonic acid.

Data set [5] concerns the target T2, rat brain kynureninase. In words: Kynureninase assay in the rat brain. In kind it is biochemical. As to conditions: rat brain homogenate; read-out: IC50 Kyn-Ase.

For orientation: melting point means the temperature of the solid-liquid transition. `COc1ccc(Cl)cc1C(=O)CC(N)C(=O)O` (racemic) (as salt: hydrochloride) [FCE 28836, (R,S)-2-amino-4-(2′-methoxy-5′-chlorophenyl-4-oxo-butyric acid] displayed a melting point of 212 to 213 °C.

For orientation: inhibition means the drop in the measured response relative to a control, in per cent. In data set [1], `NC(CC(=O)c1ccccc1)C(=O)O` (racemic) [FCE 27377, (R,S)-2-amino-4-phenyl-4-oxo-butyric acid] gave an inhibition at 100 µM of 46% and an inhibition at 1000 µM of 86%. In addition, the inhibition at 100 µM in data set [2] amounted to 35.6%.

As usually defined, the IC50 is the concentration that inhibits the measured activity by half. As for `COc1ccccc1C(=O)CC(N)C(=O)O` (racemic) [FCE 27384, (R,S)-2-amino-4-(2′-methoxyphenyl)-4-oxo-butyric acid], the melting point was 115 °C (dec.). In data set [1], this molecule displayed an inhibition at 100 µM of 96% and an inhibition at 1000 µM of 97%. Further, the inhibition at 100 µM in data set [2] came out at 86%. In addition, in data set [3], the inhibition at 100 µM came to 4%. This molecule displayed an inhibition at 100 µM in data set [4] (100 μM) of 3%. The same molecule yielded an inhibition at 1000 µM in data set [4] (1 mM) of 30%. For the same molecule, the IC50 in data set [5] amounted to 6 µM.

With `COc1ccc(C(=O)CC(N)C(=O)O)cc1` (racemic) [FCE 28628, (R,S)-2-amino-4-(4′-methoxyphenyl)-4-oxo-butyric acid], the melting point is 160 °C (dec.). For the same molecule, the inhibition at 100 µM in data set [2] came out at 17%. In data set [3], the inhibition at 100 µM worked out at 79% and the IC50 came to 30 µM.

`COc1cccc(C(=O)C[C@@H](N)C(=O)O)c1` (racemic) [FCE 28629, (R,S)-2-amino-4-(3′-methoxyphenyl)-4-oxo-butyric acid]: the “% INHIBITION AT 100 μM Kyn-Ase” value in data set [2] is on record as 54%. Also, the “% INHIBITION AT 100 μM Kyn-3-OH-Ase” value in data set [3] is given as 29%.

In the case of `Cc1ccccc1C(=O)CC(N)C(=O)O` (racemic) [FCE 28630, (R,S)-2-amino-4-(2′-methylphenyl)-4-oxo-butyric acid], the melting point was 192 to 193 °C (dec.). Moreover, in data set [2], the inhibition at 100 µM came out at 40%. Moreover, in data set [3], the inhibition at 100 µM worked out at 81% and the IC50 stood at 23 µM.

Regarding `N[C@H](CC(=O)c1ccccc1F)C(=O)O` (racemic) [FCE 28631, (R,S)-2-amino-4-(2′-fluorophenyl)-4-oxo-butyric acid], the “% INHIBITION AT 100 μM Kyn-Ase” value in data set [2] worked out at 52%. In addition, in data set [3], the “% INHIBITION AT 100 μM Kyn-3-OH-Ase” value is on record as 47%.

Turning to `N[C@H](CC(=O)c1cccc(C(F)(F)F)c1)C(=O)O` (racemic) [FCE 28680, (R,S)-2-amino-4-(3′-trifluoromethylphenyl)-4-oxo-butyric acid], the “% INHIBITION AT 100 μM Kyn-Ase” value in data set [2] is on record as 67%. Besides, the “% INHIBITION AT 100 μM Kyn-3-OH-Ase” value in data set [3] stood at 17%.

Consider `NC(CC(=O)c1ccc(Cl)cc1)C(=O)O` (racemic) [FCE 28751, (R,S)-2-amino-4-(4′-chlorophenyl)-4-oxo-butyric acid], for which the melting point fell in the range of 204 to 206 °C. The inhibition at 100 µM in data set [2] turned out to be 0%. Also, in data set [3], the inhibition at 100 µM was determined as 85% and the IC50 is 7 µM.

Turning to `NC(CC(=O)c1cccc(Cl)c1)C(=O)O` (racemic) [FCE 28752, (R,S)-2-amino-4-(3′-chlorophenyl)-4-oxo-butyric acid], the melting point is 198 to 200 °C (dec.). Besides, in data set [2], the inhibition at 100 µM came out at 60%. In data set [3], the inhibition at 100 µM was determined as 93% and the IC50 was 0.4 µM.

In the case of `N[C@H](CC(=O)c1ccccc1Cl)C(=O)O` (racemic) [FCE 28753, (R,S)-2-amino-4-(2′-chloroohenyl)-4-oxo-butyric acid], the “% INHIBITION AT 100 μM Kyn-Ase” value in data set [2] amounted to 71%. The “% INHIBITION AT 100 μM Kyn-3-OH-Ase” value in data set [3] came to 22%.

Take `NC(CC(=O)c1cccc(F)c1)C(=O)O` (racemic) [FCE 28764, (R,S)-2-amino-4-(3′-fluorophenyl)-4-oxo-butyric acid]: the melting point is 194 to 195 °C (dec.). Also, the inhibition at 100 µM in data set [2] worked out at 0%. Besides, in data set [3], the inhibition at 100 µM is 93% and the IC50 is 0.9 µM.

Take `COc1ccc(F)cc1C(=O)C[C@@H](N)C(=O)O` (racemic) [FCE 28766, (R,S)-2-amino-4-(2′-methoxy-5′-fluoropheryl)-4-oxo-butyric acid]: the “% INHIBITION AT 100 μM Kyn-Ase” value in data set [2] is 81%. In data set [3], the “% INHIBITION AT 100 μM Kyn-3-OH-Ase” value came to 2%.

In the case of `NC(CC(=O)c1ccc(Cl)c(Cl)c1)C(=O)O` (racemic) [FCE 28833, (R,S)-2-amino-4-(3′,4′-dichlorophenyl)-4-oxo-butyric acid], in data set [3], the inhibition at 100 µM was 99% and the IC50 was 0.2 µM.

With `COc1ccc(Cl)cc1C(=O)CC(N)C(=O)O` (racemic) [FCE 28836, (R,S)-2-amino-4-(2′-methoxy-5′-chlorophenyl-4-oxo-butyric acid], in data set [3], the inhibition at 100 µM was 73% and the half-inhibitory concentration (IC50) was 33 µM.

For the molecule `N[C@@H](CC(=O)c1ccccc1)C(=O)O` [FCE 28468, (S)-2-amino-4-phenyl-4-oxo-butyric acid], the inhibition at 100 µM in data set [2] stood at 61%.

`N[C@H](CC(=O)c1ccccc1)C(=O)O` [FCE 28469, (R)-2-amino-4-phenyl-4-oxo-butyric acid]: the inhibition at 100 µM in data set [2] came out at 19%.

On to `COc1ccccc1C(=O)C[C@H](N)C(=O)O` [FCE 28626, (S)-2-amino-4-(2′-methoxyphenyl)-4-oxo-butyric acid], for which the melting point was 130 °C (dec.).
